How the values were obtained:
[1] = test system: hMSC secretome; test: LC-MS/MS analysis of secreted proteins in the secretome; type: cell-based, human; conditions: n=4; for number of down-regulated proteins (Fold ≤ 1.5) vs control / number of up-regulated proteins (Fold ≥ 1.5) vs control: vs DMSO under normoxia
Procedure: (§1) Human mesenchymal stem cells (hMSC) were obtained from American Type Culture Collection (ATCC, Manassas, VA). Cells were stored in liquid nitrogen until use. MSCs were maintained in minimum essential medium, alpha (aMEM, Corning®, Corning, NY) supplemented with 16% Fetal Bovine Serum (FBS, VWR, Radnor, PA) and 4 mM L-glutamine (Sigma-Aldrich, St. Louis, MO). Medium was changed every other day, and once the cells reached 70-80% confluence, the cells were detached by trypsin-EDTA solution (VWR, Radnor, PA). hMSC were seeded (density 5,000 cells/cm^2) on 25 cm^2. When cells reached 80% confluency (4-5 days), they were washed two times with 5 ml of PBS. The growth media was then changed to serum-free media with or without a product treatment (5 ml), and the cells were cultured for 48 hours. Experiments were performed in two different environments, normoxia (about 18.6% oxygen) and hypoxia (5% oxygen). Cells were incubated at 37° C. and 5% CO2 throughout the experiment.
To characterize the hMSC secretome, condition media (CM or secretome) was collected from cells cultured under FBS-free for 48 hours. CM was filtered through a 0.45 μm syringe filter to remove residual cells and cell debris. The resulting condition media was concentrated and washed 3 times with 50 mM ammonium bicarbonate using Corning® Spin-X® UF Concentrators (10K Dalton, Corning®, Corning, NY) at 3,000 g for 25 minutes each cycle. Following, the secretome was collected from the concentrator, frozen at −80° C., and lyophilized 24 hours. Lyophilized secretome was stored at −80° C. For functional experiments with CM, normal hMSCs (passages 6-8) were used.
The amount of secretome was normalized in all samples, and 50 μl of the sample were pipetted in microcentrifuge units (Millipore, Burlington, MA) and digested following the filter aided sample preparation (FASP) protein digestion kit from Expedeon (San Diego, CA). Samples were reduced using 0.1 M dithiothreitol for 15 minutes at 50° C. […] was achieved using iodoacetamide for 20 minutes at room temperature following by 2× washing steps with 8 M urea and 50 mM ammonium bicarbonate. The samples were then enzymatically digested with trypsin at 37° C. overnight. Finally, samples were collected by spinning the microcentrifuge units at 14000 rcf for 20 minutes with a final wash with distilled water and freeze-dried. Prior to LC-MS/MS analysis, samples were resuspended in 0.1% formic acid.
Mass spectrometry analysis was executed in the orbitrap Thermo Velos Pro system (Thermo Fisher Scientific, Waltman, MA) using Thermo Xcalibur™ Roadmap software (Thermo Fisher Scientific, Waltman, MA). For this study, secretome from 4 independent experiments were processed and analyzed independently.
Mass spectra were analyzed using Proteome Discoverer™ 2.1 (Thermo Fisher Scientific, Waltman, MA) label-free differential protein expression analysis and the Sequest™ HT. Xcalibur™ raw data collected from the mass spectrometer was imported from the MS spectra and processed as followed. Only features compromising charges of 2+ and 3+ were selected. The mass precision was 2 ppm and mass tolerance 0.02 Da for fragment mass tolerance. Trypsin was set as the digestion enzyme with a maximum of two allowed missed cleavages with six as the minimum peptide length. Cysteine carbamidomethylation (C) was set as a fixed modification, and N-terminal acetylation and methionine oxidation were allowed as variable modifications. The spectra were searched using the Sequest™ HT search engine against the human Uniprot sequence database. Percolator node was used to filter data using 0.1 for FDR at the peptide and protein level. For relative quantification in a label-free analysis, the precursor ion area detector node was used, and ratios were calculated by dividing the treated samples vs. the control group (DMSO under normoxia). […]

[2] = test system: Human mesenchymal stem cells (hMSC); test: Cell proliferation (MTS) of hMSC treated with RSV, NAM or RSV+NAM; type: cell-based; conditions: 48 hours, serum-free media, normoxia, increasing dose, vs DMSO control
Procedure: as §1, with “[…] Cell proliferation was assessed using CellTiter 96® AQueous Non-Radioactive Cell Proliferation Assay (MTS, Promega, Madison WI) based on the redox conversion of a tetrazolium salt into formazan product. […] The cells” for “Experiments were performed in two different environments, normoxia (about 18.6% oxygen) and hypoxia (5% oxygen). Cells”, “incubated for 2 hours, and the absorbance of each well” for “incubated”, “490 nm was measured using a SpectraMax® 190 Microplate Reader. Cell proliferation was determined using MTS, colorimetric assay after” for “37° C. and 5% CO2 throughout”, “cells were treated for 48 hours in serum free media with the vehicle (DMSO) as control, resveratrol (RSV), nicotinamide (NAM), or a combination (RSV+NAM) in serum-free media under normoxia. […]” for “experiment.”

Oc1ccc(/C=C/c2cc(O)cc(O)c2)cc1 [RSV, 3,5,4′-trihydroxy-trans-stilbene]
Total proteins (number of proteins secreted) ([1]; Hypoxia (5% O2)): 55
Unique vs control (number of unique proteins) ([1]; Hypoxia (5% O2)): 2
number of down-regulated proteins (Fold ≤ 1.5) vs control ([1]; Hypoxia (5% O2)): 0
number of up-regulated proteins (Fold ≥ 1.5) vs control ([1]; Hypoxia (5% O2)): 30
Total proteins (number of proteins secreted) ([1]; Normoxia): 51
Unique vs control (number of unique proteins) ([1]; Normoxia): 2
number of down-regulated proteins (Fold ≤ 1.5) vs control ([1]; Normoxia): 3
number of up-regulated proteins (Fold ≥ 1.5) vs control ([1]; Normoxia): 7
cell proliferation (MTS) versus control [2]: not a significant difference

NC(=O)c1cccnc1 [nicotinamide]
cell proliferation (MTS) versus control [2]: not a significant difference
